Laboratory results: article PMC7782793, “Hydroxamic acid-modified peptide microarrays for profiling isozyme-selective interactions and inhibition of histone deacetylases” (Nature Communications, 2021)
Where “and” joins values, the source holds several entries; their conditions need not be identical. Equal entries are not always repeated. Marks after values point to notes of the source that are not given here. Non-standard residues stand in square brackets, D forms with d. Residues, ends and D or L forms follow the SMILES beside them. *: point of attachment. Asu = N[C@@H](CCCCCC(=O)O)C(=O)O; NHOH = ON*

Assays:
[1] = molecular target: T1, HDAC1 (Homo sapiens, UniProt Q13547); assay: Recombinant HDAC µSPOT microarray binding assay;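 note: slides with spotted peptides incubated with six HDAC concentrations in HEPES buffer pH 7.4, spot intensities fitted by four-parameter logistic, EC50 as enzyme concentration giving half-maximal binding signal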
T1 construct: HDAC1 (full length, C-terminal His tag, C-terminal FLAG tag, BPS Bioscience, cat. #: 50051); FLAG (C); purchased BPS Bioscience 50051

[2] = molecular target: T2, HDAC3/NCoR2 (Homo sapiens, UniProt O15379); assay: Recombinant HDAC µSPOT microarray binding assay;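 note: peptide spots on cellulose slides incubated with rising HDAC enzyme concentrations, imaged together, four-parameter logistic fit, EC50 is enzyme concentration giving half-maximal binding signal, two experiments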
T2 construct: HDAC3/NCoR2 (full length, C-terminal His tag, NCoR2 N-terminal GST tag); purchased BPS Bioscience 50003

[3] = molecular target: T1, HDAC1; assay: HDAC inhibition assay (fluorogenic, Ac-Leu-Gly-Lys(Ac)-AMC); assay type: biochemical; conditions: for HDAC1 dose-response data (relative enzyme activity), Fig. 6 + S. Fig. 10: duplicate columns
[4] = molecular target: T3, HDAC2 (Homo sapiens, UniProt Q92769); assay: as above; assay type: biochemical; conditions: for HDAC2 dose-response data (relative enzyme activity), Fig. 6 + S. Fig. 10: duplicate columns
T3 construct: HDAC2 (full length, C-terminal His tag, BPS Bioscience, cat. #: 50002); purchased BPS Bioscience 50002

[5] = molecular target: T2, HDAC3/NCoR2; assay: as above; assay type: biochemical; conditions: for HDAC3 dose-response data (relative enzyme activity), Fig. 6 + S. Fig. 10: duplicate columns
[6] = molecular target: T4, HDAC8 (Homo sapiens, UniProt Q9BY41); assay: HDAC inhibition assay (fluorogenic, Ac-Leu-Gly-Lys(Tfa)-AMC); assay type: biochemical; conditions: for HDAC8 dose-response data (relative enzyme activity, replicate values), Fig. 6 + S. Fig. 10: two replicate columns per inhibitor; for HDAC8 dose-response data (relative enzyme activity), Fig. 6 + S. Fig. 10: duplicate columns
T4 construct: HDAC8 (full length, C-terminal His tag, BPS Bioscience, cat. #: 50008); purchased BPS Bioscience 50008
T4 sequence (Q9BY41 1-377): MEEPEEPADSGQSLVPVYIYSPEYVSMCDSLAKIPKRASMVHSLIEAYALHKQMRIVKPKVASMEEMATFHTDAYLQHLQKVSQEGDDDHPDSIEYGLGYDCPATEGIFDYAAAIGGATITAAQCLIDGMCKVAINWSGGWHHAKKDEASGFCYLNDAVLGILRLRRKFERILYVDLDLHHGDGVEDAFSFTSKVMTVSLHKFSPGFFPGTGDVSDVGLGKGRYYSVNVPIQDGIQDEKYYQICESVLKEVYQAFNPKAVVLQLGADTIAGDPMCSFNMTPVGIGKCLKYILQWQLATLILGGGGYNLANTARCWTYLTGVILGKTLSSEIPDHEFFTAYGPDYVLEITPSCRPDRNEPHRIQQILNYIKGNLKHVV

[7] = molecular target: T5, HDAC6 (Homo sapiens, UniProt Q9UBN7); assay: HDAC inhibition assay (fluorogenic, Ac-Leu-Gly-Lys(Ac)-AMC); assay type: biochemical; conditions: HDAC6, replicates
T5 construct: HDAC6 (full length, BPS Bioscience, cat. #: 50056); purchased BPS Bioscience 50056
T5 sequence (Q9UBN7 1-1215): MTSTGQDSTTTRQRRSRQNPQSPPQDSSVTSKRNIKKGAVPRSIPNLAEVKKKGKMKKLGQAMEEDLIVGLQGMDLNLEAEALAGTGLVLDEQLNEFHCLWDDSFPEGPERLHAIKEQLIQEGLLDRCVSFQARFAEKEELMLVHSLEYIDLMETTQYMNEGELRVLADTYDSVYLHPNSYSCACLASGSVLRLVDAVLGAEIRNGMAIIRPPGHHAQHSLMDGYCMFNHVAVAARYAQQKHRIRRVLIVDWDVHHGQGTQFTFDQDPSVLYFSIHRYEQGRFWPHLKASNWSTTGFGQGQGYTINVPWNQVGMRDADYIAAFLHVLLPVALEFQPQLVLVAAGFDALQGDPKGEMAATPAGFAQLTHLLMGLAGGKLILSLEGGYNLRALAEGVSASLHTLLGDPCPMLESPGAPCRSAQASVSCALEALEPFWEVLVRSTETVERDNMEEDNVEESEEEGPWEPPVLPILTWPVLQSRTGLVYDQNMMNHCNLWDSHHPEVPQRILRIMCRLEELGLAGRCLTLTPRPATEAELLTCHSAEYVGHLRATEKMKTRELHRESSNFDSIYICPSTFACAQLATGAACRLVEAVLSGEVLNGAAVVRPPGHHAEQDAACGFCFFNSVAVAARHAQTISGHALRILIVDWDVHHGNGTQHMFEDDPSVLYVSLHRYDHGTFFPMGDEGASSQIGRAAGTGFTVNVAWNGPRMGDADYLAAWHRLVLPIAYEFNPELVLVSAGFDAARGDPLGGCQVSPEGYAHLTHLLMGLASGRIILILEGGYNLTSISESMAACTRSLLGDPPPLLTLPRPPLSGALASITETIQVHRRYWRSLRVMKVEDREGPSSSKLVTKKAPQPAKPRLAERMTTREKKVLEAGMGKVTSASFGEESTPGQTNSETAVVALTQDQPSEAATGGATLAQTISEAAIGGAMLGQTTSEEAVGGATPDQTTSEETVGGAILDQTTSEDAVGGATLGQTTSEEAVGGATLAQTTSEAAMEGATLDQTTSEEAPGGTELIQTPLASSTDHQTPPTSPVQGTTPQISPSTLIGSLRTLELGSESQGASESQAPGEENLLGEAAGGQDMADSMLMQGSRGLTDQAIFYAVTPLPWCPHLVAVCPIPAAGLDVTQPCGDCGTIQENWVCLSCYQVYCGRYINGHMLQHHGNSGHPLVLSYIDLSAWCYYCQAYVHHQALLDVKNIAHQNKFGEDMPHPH

[8] = log[inhibitor(M)] -10,5850266520292*, whole line marked with asterisks

T2 sequence (O15379 whole entry): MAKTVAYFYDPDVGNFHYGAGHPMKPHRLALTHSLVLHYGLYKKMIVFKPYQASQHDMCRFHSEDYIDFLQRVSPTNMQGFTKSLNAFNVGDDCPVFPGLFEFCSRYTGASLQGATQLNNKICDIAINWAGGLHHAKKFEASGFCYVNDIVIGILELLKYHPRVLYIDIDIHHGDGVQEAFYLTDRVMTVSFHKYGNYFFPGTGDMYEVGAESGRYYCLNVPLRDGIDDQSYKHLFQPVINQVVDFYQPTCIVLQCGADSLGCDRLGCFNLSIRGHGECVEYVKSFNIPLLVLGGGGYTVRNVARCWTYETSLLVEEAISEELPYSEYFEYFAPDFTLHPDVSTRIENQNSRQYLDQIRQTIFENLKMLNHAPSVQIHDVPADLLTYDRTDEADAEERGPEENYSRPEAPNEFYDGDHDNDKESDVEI
T2 sequence (Q9Y618 389-480 partner limits assumed): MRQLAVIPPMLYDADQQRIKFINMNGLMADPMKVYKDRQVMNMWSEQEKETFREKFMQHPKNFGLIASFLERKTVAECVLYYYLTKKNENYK
T3 sequence (Q92769 whole entry): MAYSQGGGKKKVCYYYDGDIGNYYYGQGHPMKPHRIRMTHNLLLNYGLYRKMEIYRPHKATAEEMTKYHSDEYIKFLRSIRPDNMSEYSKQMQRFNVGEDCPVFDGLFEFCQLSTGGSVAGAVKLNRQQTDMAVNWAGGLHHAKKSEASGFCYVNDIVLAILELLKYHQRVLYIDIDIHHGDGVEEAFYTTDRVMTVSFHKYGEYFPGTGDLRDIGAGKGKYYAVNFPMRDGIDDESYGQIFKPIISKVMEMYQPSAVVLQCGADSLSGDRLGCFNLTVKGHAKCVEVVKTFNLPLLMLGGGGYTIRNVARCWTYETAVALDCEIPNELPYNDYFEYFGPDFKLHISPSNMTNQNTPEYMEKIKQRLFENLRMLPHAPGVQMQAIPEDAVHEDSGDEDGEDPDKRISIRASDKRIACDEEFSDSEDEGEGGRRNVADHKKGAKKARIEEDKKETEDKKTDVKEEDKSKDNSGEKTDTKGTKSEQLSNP
T1 sequence (Q13547 whole entry): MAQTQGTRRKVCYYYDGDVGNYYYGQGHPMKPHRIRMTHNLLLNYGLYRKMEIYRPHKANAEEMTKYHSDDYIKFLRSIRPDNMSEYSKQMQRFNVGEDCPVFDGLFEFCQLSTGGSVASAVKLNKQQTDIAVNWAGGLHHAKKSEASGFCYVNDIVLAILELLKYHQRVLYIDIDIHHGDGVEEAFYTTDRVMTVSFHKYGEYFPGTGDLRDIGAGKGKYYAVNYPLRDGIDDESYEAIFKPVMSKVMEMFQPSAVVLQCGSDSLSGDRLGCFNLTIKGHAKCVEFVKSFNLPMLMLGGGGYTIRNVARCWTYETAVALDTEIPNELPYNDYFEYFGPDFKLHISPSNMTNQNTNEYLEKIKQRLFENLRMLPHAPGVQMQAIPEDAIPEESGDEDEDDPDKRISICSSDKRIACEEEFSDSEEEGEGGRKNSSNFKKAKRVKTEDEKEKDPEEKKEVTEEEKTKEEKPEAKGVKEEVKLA

Structure (SMILES): CC(=O)N[C@@H](C)C(=O)N[C@@H](CCCNC(=N)N)C(=O)N[C@@H](CCCCN)C(=O)N[C@@H](CO)C(=O)N[C@H](C(=O)NCC(=O)NCC(=O)N[C@@H](CCCCN)C(=O)N[C@@H](C)C(=O)N1CCC[C@H]1C(=O)N[C@@H](CCCNC(=N)N)C(=O)N[C@@H](CCCCCC(=O)NO)C(=O)N[C@@H](CCC(N)=O)C(=O)N[C@@H](CC(C)C)C(=O)N[C@@H](C)C(=O)N[C@H](C(=O)N[C@@H](Cc1c[nH]c2ccccc12)C(N)=O)[C@@H](C)O)[C@@H](C)O [13a] (Ac-ARKSTGGKAPR[Asu](NHOH)QLATW-NH2)
- EC50 [1]: > 25.1 nM
- EC50 [2]: 4.17 nM
- Ki [3]: 17.9 ± 0.4 nM
- HDAC1 dose-response data (relative enzyme activity), Fig. 6 + S. Fig. 10 ([3]; log[inhibitor(M)] -5): 5.502 and 6.317
- HDAC1 dose-response data (relative enzyme activity), Fig. 6 + S. Fig. 10 ([3]; log[inhibitor(M)] -5.69897): 16.4811 and 18.8712
- HDAC1 dose-response data (relative enzyme activity), Fig. 6 + S. Fig. 10 ([3]; log[inhibitor(M)] -6.39794): 32.4053 and 35.9654
- HDAC1 dose-response data (relative enzyme activity), Fig. 6 + S. Fig. 10 ([3]; log[inhibitor(M)] -7.09691): 44.2666 and 47.9606
- HDAC1 dose-response data (relative enzyme activity), Fig. 6 + S. Fig. 10 ([3]; log[inhibitor(M)] -7.79588): 60.5299 and 62.3252
- HDAC1 dose-response data (relative enzyme activity), Fig. 6 + S. Fig. 10 ([3]; log[inhibitor(M)] -8.49485): 80.9321 and 81.9464
- HDAC1 dose-response data (relative enzyme activity), Fig. 6 + S. Fig. 10 ([3]; log[inhibitor(M)] -9.19382): 95.5469 and 95.3965
- HDAC1 dose-response data (relative enzyme activity), Fig. 6 + S. Fig. 10 ([3]; log[inhibitor(M)] -9.89279): 98.1308 and 82.1941
- HDAC1 dose-response data (relative enzyme activity), Fig. 6 + S. Fig. 10 [3, 8]: 98,3704548* and 94,2568861*
- HDAC2 dose-response data (relative enzyme activity), Fig. 6 + S. Fig. 10 ([4]; log[inhibitor(M)] -5): 9.3053 and 9.139
- HDAC2 dose-response data (relative enzyme activity), Fig. 6 + S. Fig. 10 ([4]; log[inhibitor(M)] -5.69897): 27.8438 and 26.8455
- HDAC2 dose-response data (relative enzyme activity), Fig. 6 + S. Fig. 10 ([4]; log[inhibitor(M)] -7.79588): 88.6532 and 82.3131
- HDAC2 dose-response data (relative enzyme activity), Fig. 6 + S. Fig. 10 [4, 8]: 104,855804* and 98,2337504*
- Ki ([4]; resynthesized peptide in solution, Cheng-Prusoff, n = 2): 60 ± 1 nM
- Ki [5]: 2.14 ± 0.02 nM
- HDAC3 dose-response data (relative enzyme activity), Fig. 6 + S. Fig. 10 ([5]; log[inhibitor(M)] -4.30103): 0.9488 and 1.386
- HDAC3 dose-response data (relative enzyme activity), Fig. 6 + S. Fig. 10 ([5]; log[inhibitor(M)] -5): 3.154 and 2.6883
- HDAC3 dose-response data (relative enzyme activity), Fig. 6 + S. Fig. 10 ([5]; log[inhibitor(M)] -5.69897): 8.657 and 8.271
- HDAC3 dose-response data (relative enzyme activity), Fig. 6 + S. Fig. 10 ([5]; log[inhibitor(M)] -6.39794): 15.6479 and 15.4413
- HDAC3 dose-response data (relative enzyme activity), Fig. 6 + S. Fig. 10 ([5]; log[inhibitor(M)] -7.09691): 23.7196 and 23.3659
- HDAC3 dose-response data (relative enzyme activity), Fig. 6 + S. Fig. 10 ([5]; log[inhibitor(M)] -7.79588): 41.0048 and 43.3286
- HDAC3 dose-response data (relative enzyme activity), Fig. 6 + S. Fig. 10 ([5]; log[inhibitor(M)] -8.49485): 70.4254 and 74.0708
- HDAC3 dose-response data (relative enzyme activity), Fig. 6 + S. Fig. 10 ([5]; log[inhibitor(M)] -9.19382): 90.1455 and 92.6434
- HDAC3 dose-response data (relative enzyme activity), Fig. 6 + S. Fig. 10 ([5]; log[inhibitor(M)] -9.89279): 95.7935 and 97.884
- HDAC3 dose-response data (relative enzyme activity), Fig. 6 + S. Fig. 10 [5, 8]: 98,4914638* and 97,1472426*
- selectivity for HDAC3 vs. HDACs 1 and 2 ([5]; resynthesized peptides, from Ki): > 8 fold
- Ki [6]: 5.1 ± 0.03 nM
- HDAC8 dose-response data (relative enzyme activity, replicate values), Fig. 6 + S. Fig. 10 ([6]; Inhibitor conc [M] -8.49485 (log)): 71.9184 and 69.3811
- HDAC8 dose-response data (relative enzyme activity, replicate values), Fig. 6 + S. Fig. 10 ([6]; Inhibitor conc [M] -9.19382 (log)): 90.9342 and 89.4061
- HDAC8 dose-response data (relative enzyme activity, replicate values), Fig. 6 + S. Fig. 10 ([6]; Inhibitor conc [M] given as -7.09691 (log)): 21.0963 and 19.8616
- HDAC8 dose-response data (relative enzyme activity, replicate values), Fig. 6 + S. Fig. 10 ([6]; Inhibitor conc [M] given as -7.79588 (log)): 40.3806 and 38.3863
- HDAC8 dose-response data (relative enzyme activity, replicate values), Fig. 6 + S. Fig. 10 ([6]; Inhibitor conc [M] given as -9.89279 (log)): 99.1075 and 97.7
- HDAC8 dose-response data (relative enzyme activity, replicate values), Fig. 6 + S. Fig. 10 ([6]; Inhibitor conc [M] given as -10.585 (log)): 102.311 and 100.47
- HDAC8 dose-response data (relative enzyme activity), Fig. 6 + S. Fig. 10 ([6]; Inhibitor conc [M] -4.30103): 1.362 and 1.423
- HDAC8 dose-response data (relative enzyme activity), Fig. 6 + S. Fig. 10 ([6]; Inhibitor conc [M] -5): 4.393 and 4.0005
- HDAC8 dose-response data (relative enzyme activity), Fig. 6 + S. Fig. 10 ([6]; Inhibitor conc [M] -5.69897): 9.7232 and 9.03
- HDAC8 dose-response data (relative enzyme activity), Fig. 6 + S. Fig. 10 ([6]; Inhibitor conc [M] -6.39794): 13.9289 and 13.185
- residual enzymatic activity relative to control wells ([7]; log[inhibitor(M)] -4.30103): -1.734 and 1.049
- residual enzymatic activity relative to control wells ([7]; log[inhibitor(M)] -5): -1.228 and 1.2154
- residual enzymatic activity relative to control wells ([7]; log[inhibitor(M)] -5.69897): 0.01806 and 2.993
- residual enzymatic activity relative to control wells ([7]; log[inhibitor(M)] -6.39794): 4.479 and 8.186
- residual enzymatic activity relative to control wells ([7]; log[inhibitor(M)] -7.09691): 18.6761 and 22.7019
- residual enzymatic activity relative to control wells ([7]; log[inhibitor(M)] -7.79588): 46.5457 and 51.1177
- residual enzymatic activity relative to control wells ([7]; log[inhibitor(M)] -8.49485): 65.89 and 75.8407
- residual enzymatic activity relative to control wells ([7]; log[inhibitor(M)] -9.19382): 72.6813 and 83.6344
- residual enzymatic activity relative to control wells ([7]; log[inhibitor(M)] -9.89279): 83.1572 and 99.4226
- residual enzymatic activity relative to control wells ([7]; log[inhibitor(M)] -10.585): 85.7762 and 94.8721
